For this assay, the target named is DNA polymerase catalytic subunit (Human cytomegalovirus) (UniProt P08546). As to the kind of experiment: Inhibitory activity against Human Cytomegalovirus (HCMV) polymerase.

Structures are written as SMILES.

Chain of DNA polymerase catalytic subunit (Human cytomegalovirus) (P08546 whole entry, looked up): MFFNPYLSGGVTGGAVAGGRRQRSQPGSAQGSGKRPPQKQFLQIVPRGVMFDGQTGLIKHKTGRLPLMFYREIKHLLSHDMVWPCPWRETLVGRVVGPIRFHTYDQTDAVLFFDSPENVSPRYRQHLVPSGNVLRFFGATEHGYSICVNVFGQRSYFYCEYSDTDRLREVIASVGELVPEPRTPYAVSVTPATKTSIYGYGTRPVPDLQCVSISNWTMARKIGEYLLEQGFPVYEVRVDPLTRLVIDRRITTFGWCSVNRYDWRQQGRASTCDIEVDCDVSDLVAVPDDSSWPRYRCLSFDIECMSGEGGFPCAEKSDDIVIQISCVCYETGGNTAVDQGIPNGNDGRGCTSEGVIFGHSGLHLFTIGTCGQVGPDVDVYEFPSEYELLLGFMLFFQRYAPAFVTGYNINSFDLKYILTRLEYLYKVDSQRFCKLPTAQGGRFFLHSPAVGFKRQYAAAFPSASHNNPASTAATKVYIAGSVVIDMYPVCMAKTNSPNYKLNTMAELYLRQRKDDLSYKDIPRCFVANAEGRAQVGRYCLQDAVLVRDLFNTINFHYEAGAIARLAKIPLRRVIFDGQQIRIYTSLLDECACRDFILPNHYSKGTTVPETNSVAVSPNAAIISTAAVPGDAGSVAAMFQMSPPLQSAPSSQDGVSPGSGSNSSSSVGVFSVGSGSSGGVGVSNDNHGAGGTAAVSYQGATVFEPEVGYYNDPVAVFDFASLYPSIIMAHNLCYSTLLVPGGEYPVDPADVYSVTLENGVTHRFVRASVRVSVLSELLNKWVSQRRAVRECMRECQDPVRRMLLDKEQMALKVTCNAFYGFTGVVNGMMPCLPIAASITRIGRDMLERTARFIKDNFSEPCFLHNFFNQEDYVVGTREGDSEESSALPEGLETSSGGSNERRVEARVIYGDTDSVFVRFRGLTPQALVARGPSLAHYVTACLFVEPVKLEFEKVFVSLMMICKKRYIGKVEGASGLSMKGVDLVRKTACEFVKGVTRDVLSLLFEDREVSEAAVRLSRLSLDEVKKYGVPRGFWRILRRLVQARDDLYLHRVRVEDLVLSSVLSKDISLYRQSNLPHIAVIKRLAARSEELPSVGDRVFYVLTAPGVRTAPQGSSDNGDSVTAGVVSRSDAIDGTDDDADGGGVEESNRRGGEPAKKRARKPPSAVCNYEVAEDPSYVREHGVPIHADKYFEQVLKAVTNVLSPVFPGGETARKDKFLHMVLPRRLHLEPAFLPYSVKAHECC

Consider `COc1ccc(NC(=O)c2cc3ccccc3cc2O)cc1`, for which the IC50 (commonly the concentration that gives 50% inhibition) is 56 µM. As to `O=C(Nc1cccc([N+](=O)[O-])c1)c1cc2ccccc2cc1O`, half-maximal inhibition (IC50) required 12 µM. As to `O=C(NCc1ccc(Cl)cc1)c1ccc2ccccc2c1O` [1-Hydroxy-naphthalene-2-carboxylic acid 4-chloro-benzylamide], the IC50 is 13 µM.

In turn, `O=C(NCc1ccc([N+](=O)[O-])cc1)c1ccc2ccccc2c1O` [1-Hydroxy-naphthalene-2-carboxylic acid 4-nitro-benzylamide] registered an IC50 of 14.5 µM. For the molecule `O=C(Nc1ccc(Cl)cc1)c1ccc2ccccc2c1O` [1-Hydroxy-naphthalene-2-carboxylic acid (4-chloro-phenyl)-amide], the IC50 was found to be 37 µM. The molecule `O=C(NCc1ccc(Cl)cc1)c1cc2cccc(O)c2cc1O` [3,5-Dihydroxy-naphthalene-2-carboxylic acid 4-chloro-benzylamide] yielded an IC50 of 3.3 µM. The value for `O=C(NCc1ccc([N+](=O)[O-])cc1)c1cc2cccc(O)c2cc1O` [3,5-Dihydroxy-naphthalene-2-carboxylic acid 4-nitro-benzylamide] was 3.8 µM; that for `O=C(NCc1ccc(Cl)cc1)c1cc2cc(O)ccc2cc1O` [3,7-Dihydroxy-naphthalene-2-carboxylic acid 4-chloro-benzylamide] was 2.4 µM.

With `O=C(NCc1ccc([N+](=O)[O-])cc1)c1cc2cc(O)ccc2cc1O` [3,7-Dihydroxy-naphthalene-2-carboxylic acid 4-nitro-benzylamide], the IC50 was determined as 10.6 µM. Against the preceding molecule, the IC50 is about 4.4-fold higher. Regarding `COc1ccc2cc(O)c(C(=O)NCc3ccc(Cl)cc3)cc2c1` [3-Hydroxy-7-methoxy-naphthalene-2-carboxylic acid 4-chloro-benzylamide], the IC50 was 0.76 µM. The same measure for `COc1ccc2cc(O)c(C(=O)NCc3ccc([N+](=O)[O-])cc3)cc2c1` [3-Hydroxy-7-methoxy-naphthalene-2-carboxylic acid 4-nitro-benzylamide]: 0.82 µM; for `COc1ccc2cc(O)c(C(=O)Nc3nc4c(Cl)cccc4s3)cc2c1` [3-Hydroxy-7-methoxy-naphthalene-2-carboxylic acid (4-chloro-benzothiazol-2-yl)-amide]: 6.4 µM. On to `COc1ccc2cc(O)c(C(=O)Nc3ncc(Cl)s3)cc2c1` [3-Hydroxy-7-methoxy-naphthalene-2-carboxylic acid (5-chloro-thiazol-2-yl)-amide], for which the IC50 amounted to 59 µM. This IC50 is about 9.2-fold higher than that of the molecule before. In the case of `COc1ccc2cc(O)c(C(=O)Nc3nc(-c4cccc([N+](=O)[O-])c4)cs3)cc2c1` [3-Hydroxy-7-methoxy-naphthalene-2-carboxylic acid [4-(3-nitro-phenyl)-thiazol-2-yl]-amide], half-maximal inhibition (IC50) required 2.4 µM. The value for `COc1ccc2cc(O)c(C(=O)Nc3nc(-c4ccc(Cl)cc4)cs3)cc2c1` [3-Hydroxy-7-methoxy-naphthalene-2-carboxylic acid [4-(4-chloro-phenyl)-thiazol-2-yl]-amide] was 6 µM; that for `COc1ccc2cc(O)c(C(=O)Nc3nnc(Cc4ccc(Cl)cc4)s3)cc2c1` [3-Hydroxy-7-methoxy-naphthalene-2-carboxylic acid [5-(4-chloro-benzyl)-[1,3,4]thiadiazol-2-yl]-amide] was 4 µM. In turn, `O=C(NCc1ccc(Cl)cc1)c1cc2ccccc2cc1O` [3-Hydroxy-naphthalene-2-carboxylic acid 4-chloro-benzylamide] came in with an IC50 of 52 µM.

Molecule `O=C(NCc1ccc([N+](=O)[O-])cc1)c1cc2ccccc2cc1O` [3-Hydroxy-naphthalene-2-carboxylic acid 4-nitro-benzylamide] showed an IC50 of 12 µM. `Nc1cccc(NC(=O)c2cc3ccccc3cc2O)c1` [3-Hydroxy-naphthalene-2-carboxylic acid (3-amino-phenyl)-amide] registered an IC50 of over 100 µM.

In turn, `O=C(Nc1ccc(Br)cc1)c1cc2ccccc2cc1O` [3-Hydroxy-naphthalene-2-carboxylic acid (4-bromo-phenyl)-amide] came in with an IC50 of 22 µM. In turn, `O=C(Nc1ccc(Cl)cc1)c1cc2ccccc2cc1O` [3-Hydroxy-naphthalene-2-carboxylic acid (4-chloro-phenyl)-amide] had an IC50 of 69 µM. With `N#Cc1ccc(NC(=O)c2cc3ccccc3cc2O)cc1` [3-Hydroxy-naphthalene-2-carboxylic acid (4-cyano-phenyl)-amide], the IC50 turned out to be 19 µM. The same measure for `O=C(Nc1ccc([N+](=O)[O-])cc1)c1cc2ccccc2cc1O` [3-Hydroxy-naphthalene-2-carboxylic acid (4-nitro-phenyl)-amide]: 22 µM; for `O=C(NCCc1ccc(Cl)cc1)c1cc2ccccc2cc1O` [3-Hydroxy-naphthalene-2-carboxylic acid [2-(4-chloro-phenyl)-ethyl]-amide]: over 100 µM. For `O=C(NCCc1ccc([N+](=O)[O-])cc1)c1cc2ccccc2cc1O` [3-Hydroxy-naphthalene-2-carboxylic acid [2-(4-nitro-phenyl)-ethyl]-amide], the half-maximal inhibitory concentration (IC50) is over 100 µM. In turn, `O=C(Nc1ccccc1)c1cc2ccccc2cc1O` [3-Hydroxy-naphthalene-2-carboxylic acid phenylamide] displayed an IC50 of over 100 µM.

`O=C(Nc1ccccn1)c1cc2ccccc2cc1O` [3-Hydroxy-naphthalene-2-carboxylic acid pyridin-2-ylamide]: the IC50 is over 100 µM. `O=C(Nc1cccnc1)c1cc2ccccc2cc1O` [3-Hydroxy-naphthalene-2-carboxylic acid pyridin-3-ylamide]: the IC50 was over 100 µM.

The molecule `COc1cc2ccccc2cc1C(=O)NCc1ccc(Cl)cc1` [3-Methoxy-naphthalene-2-carboxylic acid 4-chloro-benzylamide] displayed an IC50 of 8 µM. The same measure for `COc1cc2ccccc2cc1C(=O)Nc1ccc([N+](=O)[O-])cc1` [3-Methoxy-naphthalene-2-carboxylic acid (4-nitro-phenyl)-amide]: over 100 µM; for `COCOc1cc2ccccc2cc1C(=O)Nc1ccc([N+](=O)[O-])cc1` [3-Methoxymethoxy-naphthalene-2-carboxylic acid (4-nitro-phenyl)-amide]: over 100 µM; for `COc1ccc2cc(O)c(CNCc3ccc(Cl)cc3)cc2c1` [3-[(4-Chloro-benzylamino)-methyl]-6-methoxy-naphthalen-2-ol]: over 100 µM. The molecule `O=C(NCc1ccc([N+](=O)[O-])cc1)c1cc2cc(Br)ccc2c(Br)c1O` [4,7-Dibromo-3-hydroxy-naphthalene-2-carboxylic acid 4-nitro-benzylamide] showed a concentration for half-maximal inhibition (IC50) of 2.9 µM. In turn, `O=C(NCc1ccc(Cl)cc1)c1ccc2ccccc2c1` [Naphthalene-2-carboxylic acid 4-chloro-benzylamide] registered an IC50 of over 100 µM. The same measure for `O=C(Nc1ccc([N+](=O)[O-])cc1)c1ccc2ccccc2c1` [Naphthalene-2-carboxylic acid (4-nitro-phenyl)-amide]: over 100 µM.

(Values after BindingDB's records for doi:10.1016/s0960-894x(00)00402-9 (Pharmacia, 2000).)
